In patent publication US10329304B2, “Compounds and methods for inhibition of hedgehog signaling and phosphodiesterase” (Vanderbilt University, priority 2014, dated 2019):
Where two headings read alike, the source gives them in different places.

What was measured:
[1] = test system: Hedgehog signaling (TM3-Gli-Luc); test: TM3-Gli-Luc luciferase reporter assay stimulated with 20 nM SAG; assay type: cell-based
Protocol: TM3-Gli-Luc cells were maintained on sterile 0.1% gelatin (from porcine skin, Type A, prepared in MilliQ water, autoclaved, then sterile-filtered) in 1:1 Dulbecco's Modified Eagle Medium (DMEM)/F12 supplemented with 5% horse serum, 2.5% fetal bovine serum (FBS), and 15 mM HEPES, hereafter referred to as TM3 Culture Medium. For small molecule evaluation, TM3-Gli-Luc cells were assayed on 0.1% gelatin in DMEM/F12 supplemented with 2.5% FBS and 15 mM HEPES, hereafter referred to as TM3Luc Medium. Sufu^−/− cells were maintained in DMEM supplemented with 4.5 g/L D-glucose, L-glutamine, 25 mM HEPES, and 10% FBS, hereafter referred to as D10 FBS. For small molecule evaluation, Sufu^−/− cells were assayed in DMEM supplemented with 4.5 g/L D-glucose, L-glutamine, 25 mM HEPES, and 0.5% FBS, hereafter referred to as D0.5 FBS. All cells were cultured at 37° C. with a 5% CO2 atmosphere.
On the day of cell plating, 96-well plates were coated with 50 μL/well of sterile 0.1% gelatin for 5 minutes then aspirated and replaced with 50 μL/well of TM3 Culture Medium. TM3-Gli-Luc cells were seeded at a density of 5,000 cells/well in TM3 Culture Medium and incubated for 24 hours. A master mix of 20 nM SAG in TM3Luc Medium was prepared, and small molecule solutions were prepared by adding the desired amount of compound from 10 mM DMSO stock to TM3Luc Medium containing 20 nM SAG. Negative control was prepared by adding an equi-volume amount of DMSO as compared to small molecule treated conditions to TM3Luc Medium not containing SAG. Cell plating medium was aspirated and replaced with 100 μL/well of prepared small molecule-containing media, and plates were incubated for 48 hours before proceeding to luciferase activity and cell viability reading.
TM3Luc Medium from compound treated plates was aspirated and replaced with 82 μL/well of Glo Lysis Buffer (Promega, Madison, Wis., USA), and plates were shaken at 300 rpm and room temperature for 12 minutes. Lysate was split between two white 96-well plates, 45 μL/well and 25 μL/well for luciferase reading and cell viability respectively. For luciferase activity monitoring, 45 μL/well of Steady Glo (Promega, Madison, Wis., USA) was added to 45 μL/well of cell lysate, incubated at room temperature for 5 minutes, then luminescence was measured on a Turner Biosystems Modulus Microplate Reader (Sunnyvale, Calif., USA) with an integration time of 0.5 seconds. For cell viability measurement, 25 μL/well of Cell Titer Glo (Promega, Madison, Wis., USA) (prepared by 1:10 dilution with Glo Lysis Buffer) was added to 25 μL/well of cell lysate, incubated at room temperature for 5 minutes, then luminescence was measured as above.
Luciferase activity data (Steady Glo) was divided by corresponding cell viability data (Cell Titer Glo) to arrive at a live cell number-normalized luciferase activity reading. The average of negative control data (DMSO treated) was subtracted from all wells, and percent activity was calculated by dividing all wells by the positive control (SAG treated) average. […] At least two independent assays tested on separate days were averaged to provide EC50±standard error of the mean.

[2] = Lipophilic efficiency (LipE = pEC50 − cLogP) and cLogP
Protocol: Therefore, we prioritized phenotypic analog evaluation in the Gli-responsive luciferase reporter line TM3-Gli-Luc stimulated with 20 nM Smo agonist (SAG) while concurrently monitoring non-specific cellular toxicity. Additionally, lipophilic efficiency (LipE), a concurrent readout of a compound's potency (pEC50) and lipophilicity (cLogP) derived by subtracting the latter from the former, was utilized to optimize solubility properties (Table 12B), allowing for straightforward tracking of compounds with improvements in both parameters.

[3] = test system: Hedgehog signaling (Gli-Luc reporter); test: Hh Gli-Luciferase reporter assay in Shh-Light2 cells; assay type: cell-based, mouse; conditions: for EC50: Mus musculus, Shh Light2
Protocol: For Hh signaling assays, Shh-Light2 cells stably transfected with Gli-Luciferase reporter construct were used along with Shh-conditioned media, as previously described^7. Alternatively, 3 μM purmorphamine or 20 nM Smoothened agonist (SAG) (Santa Cruz Biotechnology, Santa Cruz, Calif.) was used to induce Hh signaling. Reporter cells were seeded in 96-well plates and incubated overnight with the various concentrations of eggmanone and Shh-conditioned media. To assess the effects of overexpression of Gli-2, PDE4D3 and DN-PDE4D3 on Hh signaling, mammalian expression vectors containing these constructs were transfected into Shh-Light2 cells in 96-well plates using Fugene6 (Roche), according to manufacturer's instructions. The transfected or Shh-stimulated cells were incubated overnight with the various concentrations of compound. The cells were then lysed, and cell extracts were subjected to Steady-Glo luciferase assay (Promega) according to manufacturer's instructions. The results were normalized to cell titer, as determined using Cell Titer-Glo luminescence assay (Promega).

[4] = biological target: PDE4D (Homo sapiens, UniProt Q08499); test: PDE4 inhibition assay (PDE4D IC50); assay type: biochemical; conditions: Table 8; read-out: PDE4 Inhibition Assay (IC50)
Protocol: (§1) In vitro PDE profiling and dose-response assays were performed by BPS Biosciences (San Diego, Calif.). Kinetic Mechanism of inhibition studies were conducted by Millipore (St. Louis, Mo.). In brief, the PDE assay measures fluorescent polarization of FAM-AMP as FAM-cAMP is converted to FAM-AMP by PDE), the binding agent.
(§2) A series of dilutions of the test compound were prepared with 10% DMSO in assay buffer and 5 μl of the dilution was added to a 50 μl reaction so that the final concentration of DMSO is 1% in all of reactions. All of the PDE enzymatic reactions were conducted in duplicate at room temperature for 60 minutes in a 50 μl mixture containing PDE assay buffer (10 mM Tris-HCl, pH7.4, 10 mM MaCl2, 0.05% Tween 20), 100 nM FAM-cAMP, a PDE enzyme and a test compound.
(§3) After the enzymatic reaction, 100 μl of a binding solution (1:100 dilution of the binding agent, which contains the nano beads that recognize FAM-AMP, with the binding agent diluent) was added to each reaction and the reaction was performed at room temperature for 60 minutes. Fluorescence intensity was measured at an excitation of 485 nm and an emission of 528 nm using a Tecan Infinite M1000 microplate reader. Assays done by Millipore were conducted similarly with changes noted below:
Hedgehog signaling inhibition and PDE4 inhibition of various compounds disclosed herein was assayed as described herein above.

[5] = biological target: T1, PDE4D3 (Homo sapiens, UniProt Q08499); test: In vitro PDE assay; assay type: biochemical
T1 construct: purchased BPS Biosciences (San Diego, Calif.); kinetic studies by Millipore (St. Louis, Mo.)
Protocol: as §1, §2
as §3, with “below: […]” for “below:”

[6] = test system: Gli1 mRNA; test: Hh % Inh.: SAG-induced Gli1 expression in C3H10T½ cells (qPCR); assay type: cell-based; conditions: Mus musculus, C3H 10T1/2, SAG-induced (100 nM), 24 hours
Protocol: Compounds are dosed from 10 mM DMSO stock solutions, and mRNA is isolated after 24 hours of compound treatment. mRNA is reverse transcribed to produce cDNA which is quantified by quantitative polymerase chain reaction (qPCR) in triplicate and levels are normalized to GAPDH levels. Data is presented as percent inhibition compared to positive control (SAG).

[7] = 20 nM SAG, mean ± standard error of the mean, read-out: TM3-Gli-Luc EC50
[8] = Calculated as pEC50 - cLogP, Molinspiration Cheminformatics
[9] = TM3-Gli-Luc reporter line stimulated with 20 nM SAG, mean ± SEM, Table 13, read-out: TM3-Gli-Luc EC50
[10] = calculated as pEC50 - cLogP (Molinspiration Cheminformatics), Table 13
[11] = Table 8, read-out: Hh Inhibition Assay (EC50)
[12] = Table 9B, read-out: Shh Light2 Luc EC50

Chain of PDE4D (Q08499 1-673 isoform Q08499-2): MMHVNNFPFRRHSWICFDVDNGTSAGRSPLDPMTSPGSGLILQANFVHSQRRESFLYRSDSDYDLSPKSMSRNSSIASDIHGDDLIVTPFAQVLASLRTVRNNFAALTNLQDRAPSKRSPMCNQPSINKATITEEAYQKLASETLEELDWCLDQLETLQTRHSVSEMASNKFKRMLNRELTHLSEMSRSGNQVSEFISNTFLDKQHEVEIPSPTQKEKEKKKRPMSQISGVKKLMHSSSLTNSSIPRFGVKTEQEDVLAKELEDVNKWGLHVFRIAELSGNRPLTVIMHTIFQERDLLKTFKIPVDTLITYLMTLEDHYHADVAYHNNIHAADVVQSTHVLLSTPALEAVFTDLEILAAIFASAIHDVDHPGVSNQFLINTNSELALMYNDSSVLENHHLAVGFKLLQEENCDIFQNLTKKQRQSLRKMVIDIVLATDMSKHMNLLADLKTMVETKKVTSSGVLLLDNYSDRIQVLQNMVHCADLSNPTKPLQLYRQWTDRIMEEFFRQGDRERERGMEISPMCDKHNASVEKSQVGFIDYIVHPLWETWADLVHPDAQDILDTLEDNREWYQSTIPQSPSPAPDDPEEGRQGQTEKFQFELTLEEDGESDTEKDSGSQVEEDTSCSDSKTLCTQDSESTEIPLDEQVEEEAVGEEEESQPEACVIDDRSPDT
T1 sequence (Q08499 1-673 isoform Q08499-2): as above

Row | Compound | EC50 [3, 11] [µM] | IC50 [4] [µM] | other results
1 | C=C(C)Cn1c(SCC(=O)c2cccs2)nc2sc3c(c2c1=O)CCNC3 [Formula 10a] |  |  | EC50 [1, 7]: 6.4 ± 0.33 µM; LipE [2, 8]: 1.45
2 | O=C(CSc1nccc(=O)n1C1CC1)c1ccccc1 [Formula 14c] |  |  | Hh inhibitory activity / potency in words ([1]; 20 nM SAG): potency improvements over EGM1; EC50 [1, 9]: 1.16 ± 0.39 µM; LipE [2, 10]: 2.46
3 | C=C(C)Cn1c(SCC(=O)c2cccs2)nccc1=O [Formula 19a] |  |  | EC50 [1, 9]: 0.931 ± 0.11 µM; LipE [2, 10]: 2.06
4 | C=C(C)Cn1c(SCC(=O)c2cccs2)nc2sc3c(c2c1=O)CCCC3 [Formula (1), 3-(2-methylallyl)-2-((2-oxo-2-(thiophen-2-yl)ethyl)thio)-5,6,7,8-tetrahydrobenzo[4,5]thieno[2,3-d]pyrimidine-4(3H)-one] | 1.5 | 0.893 | 
5 | C=CCn1c(SCC(=O)c2cccs2)nc2sc3c(c2c1=O)CCCC3 [Formula (2)] |  | > 100 | Hh Inhibition Assay (EC50, μM) ([3]; Table 8): Inactive
6 | C=C(C)Cn1c(SCC(=O)c2ccccc2)nc2sc3c(c2c1=O)CCCC3 [Formula (3)] | 3 | 1.27 | 
7 | C=C(C)Cn1c(SCC(=O)N2CCCC[C@H]2C)nc2sc3c(c2c1=O)CCCC3 [Formula (5)] | 2.5 | 1.2 | 
8 | C=CCn1c(SCC(=O)N2CCCC[C@H]2C)nc2sc3c(c2c1=O)CCCC3 [Formula (6)] | 5 | 7.6 | 
9 | C=C(C)Cn1c(SCC(=O)N2CCN(C)CC2)nc2sc3c(c2c1=O)CCCC3 [Formula (7)] | 20 | 8.5 | 
10 | C=CCn1c(SCC(=O)N2CCN(C)CC2)nc2sc3c(c2c1=O)CCCC3 [Formula (8)] | 10 | 2.08 | 
11 | C=C(C)Cn1c(SCC(=O)c2nccs2)nc2sc3c(c2c1=O)CCCC3 [Formula (9)] | 7.5 | 6.4 | 
12 | C=CCn1c(SCC(=O)c2nccs2)nc2sc3c(c2c1=O)CCCC3 [Formula (10)] |  | 27 | Hh Inhibition Assay (EC50, μM) ([3]; Table 8): Inactive
13 | C=C(C)Cn1c(SCC(=O)c2ccncc2)nc2sc3c(c2c1=O)CCCC3 [Formula (11)] | 10 | 16 | 
14 | C=CCn1c(SCC(=O)c2ccncc2)nc2sc3c(c2c1=O)CCCC3 [Formula (12)] | 15 | 8.2 | 
15 | C=C(C)Cn1c(SCC(=O)N2CCOCC2)nc2sc3c(c2c1=O)CCCC3 [Formula (13)] | 5 to 20 | 3.9 | 
16 | C=CCn1c(SCC(=O)N2CCOCC2)nc2sc3c(c2c1=O)CCCC3 [Formula (14)] |  | > 100 | Hh Inhibition Assay (EC50, μM) ([3]; Table 8): Inactive
17 | C=C(C)Cn1c(SCC(=O)c2ccccn2)nc2sc3c(c2c1=O)CCCC3 [Formula (15)] | 15 | 23 | 
18 | C=CCn1c(SCC(=O)c2ccccn2)nc2sc3c(c2c1=O)CCCC3 [Formula (16)] | 20 | 25 | 
19 | C=C(C)Cn1c(SCC(=O)N2Cc3ccccc3C2)nc2sc3c(c2c1=O)CCCC3 [Formula (17)] |  | 46 | Hh Inhibition Assay (EC50, μM) ([3]; Table 8): Inactive
20 | C=CCn1c(SCC(=O)N2Cc3ccccc3C2)nc2sc3c(c2c1=O)CCCC3 [Formula (18)] |  | > 100 | Hh Inhibition Assay (EC50, μM) ([3]; Table 8): Inactive
21 | C=C(C)Cn1c(SCC(=O)c2ccc(-c3ccccc3)cc2)nc2sc3c(c2c1=O)CCCC3 [Formula (19)] |  | > 100 | Hh Inhibition Assay (EC50, μM) ([3]; Table 8): Inactive
22 | CCn1c(SCC(=O)c2ccc(Cl)cc2)nc2sc3c(c2c1=O)CCC3 [HI113] |  |  | EC50 [3, 12]: > 20 µM; IC50 ([5]; Table 9B): 4.1 µM
23 | C=CCn1c(SCC(=O)c2ccc(OC)cc2)nc2sc3c(c2c1=O)CCCC3 [HI798] |  |  | EC50 [3, 12]: > 10 µM; IC50 ([5]; Table 9B): > 100 µM
24 | C=C(C)Cn1c(SCC(=O)c2cccs2)nc2sc3ccccc3c2c1=O [JEH-4-006] |  |  | EC50 ([1]; Table 9A, read-out: TM3 G8 Luciferase EC 50): > 50 µM; inhibition at 1 µM ([6]; 1 pM [sic], read-out: C3H10T1/2 qPCR, Gh1 mRNA % Inh., 1 pM): 14.3%; inhibition at 10 µM ([6]; 10 pM [sic], read-out: C3H10T1/2 qPCR, Gh1 mRNA % Inh., 10 pM): 79.3%; EC50 ([6]; read-out: C3H10T1/2 qPCR, Gh1 mRNA EC50): 4.3 µM; IC50 ([5]; Table 9A): > 100 µM
25 | CS(=O)(=O)c1ccc(C(=O)Nc2ccc(Cl)c(-c3ccccn3)c2)c(Cl)c1 [Vismodegib, reference compound] |  |  | Hh inhibitory activity / potency in words ([1]; 20 nM SAG): displayed expected potency; Hh inhibitory activity / potency in words ([1]; 20 nM SAG, listed as 1): low-nanomolar; EC50 [1, 7]: 0.013 ± 0.004 µM; LipE [2, 8]: 4.33
